Activity calls are given as the source filed them. The rule behind the calls is not given here.
Columns and labels:
Plasmodium berghei [1] = test: (§1) Antimalarial activity against Plasmodium berghei in Swiss mouse inoculated with parasite infected red blood cells assessed as reduction in parasitemia at 100 mg/kg/day, ip administered 4 hrs post infection on day 0, 1, 2 , 3 measured on day 4 post infection by giemsa staining based microscopic method; assay type: functional, organism-based
Mus musculus = test: Toxicity in Swiss mouse inoculated with parasite infected red blood cells assessed as mortality at 100 mg/kg/day, ip administered 4 hrs post infection on day 0, 1, 2 , 3 measured on day 4; assay type: organism-based; settings: in vivo
Plasmodium berghei [2] = test: as §1, with “day 7” for “day 4”; assay type: functional, organism-based
Plasmodium berghei [3] = test: Antimalarial activity against Plasmodium berghei in Swiss mouse inoculated with parasite infected red blood cells assessed as mean survival time at 100 mg/kg/day, ip administered 4 hrs post infection on day 0, 1, 2 , 3; assay type: functional
[4] = Apparent permeability across apical to basolateral side in human Caco2 cells at 50 uM after 90 mins by LC-MS/MS method; assay type: ADME, cell-based; settings: Caco-2
[5] = Oral bioavailability in Sprague-Dawley rat at 10 mg/kg, administered via gavage; assay type: ADME, organism-based; settings: in vivo

| Structure (SMILES) | Activity (Plasmodium berghei [1]) | Activity (Mus musculus) | further results |
| --- | --- | --- | --- |
| N=C(N)/N=C(\N)SCc1ccccc1[N+](=O)[O-] | inactive | Toxic | – |
| N=C(N)/N=C(\N)SCCOc1nc2ccccc2s1 | – | – | Activity (Plasmodium berghei [2]): Active |
| N=C(N)/N=C(\N)SCc1ccc(OCc2cccc(Br)c2)cc1 | inactive | Toxic | – |
| N#Cc1ccc(CSC(=N)NC(=N)N)cc1 | – | Toxic | – |
| N=C(N)/N=C(\N)SCCOc1cccc(Br)c1 | – | – | MST (Plasmodium berghei [3]): 25 days |
| N=C(N)/N=C(\N)SCc1cccc(CS/C(N)=N/C(=N)N)c1 | – | – | MST (Plasmodium berghei [3]): 20 days |
| N=C(N)/N=C(\N)SCc1ccccc1C(F)(F)F | inactive | Toxic | – |
| N#Cc1ccc(CS/C(N)=N/C(=N)N)cc1 | inactive | – | – |
| N=C(N)/N=C(\N)SCCCOc1ccc(Cl)c(Cl)c1 | – | – | MST (Plasmodium berghei [3]): 24 days |
| Cc1ccc(CSC(=N)N=C(N)N)cc1 | inactive | Toxic | – |
| N=C(N)NC(=N)SCc1cccc(C(F)(F)F)c1 | inactive | Toxic | – |
| N=C(N)/N=C(\N)SCCCOc1ccc(I)cc1 | – | – | MST (Plasmodium berghei [3]): 26 days |
| N=C(N)/N=C(\N)SCCCOc1c(Cl)cc(Cl)cc1Cl | – | – | MST (Plasmodium berghei [3]): 24 days |
| CC1(C)N=C(N)N=C(N)N1OCCCOc1cc(Cl)c(Cl)cc1Cl | – | – | Papp A→B at 1.5 h, 50 µM [4]: < 0.12 ×10⁻⁶ cm/s; bioavailability [5]: < 1% |
| N=C(N)NC(=N)SCc1cccc([N+](=O)[O-])c1 | inactive | Toxic | – |
| N=C(N)/N=C(\N)SCc1cccc(Cl)c1 | inactive | Toxic | – |
| N=C(N=C(N)N)SCc1cccc(I)c1 | inactive | Toxic | – |
| N=C(N)/N=C(\N)SCc1ccc(F)cc1 | inactive | Toxic | – |
